Patent US20110118337A1, “Method of Using Compositions Comprising MIR-192 and/or MIR-215 for the Treatment of Cancer” (Merck Sharp & Dohme Corp., priority 2008, published 2011)

System: HCT116 DICER^ex5 cells
Experiment: Gene expression profiling (Agilent 44K microarray) after transfection of miR-192/miR-215 duplex mimetics
Format: cell-based, human
Settings: 10 nM, vs mock-transfected
Method: Synthetic duplex mimetics of miR-192 and miR-215 (sequences shown in TABLE 1) or a control target Luciferase siRNA (Luc), shown in TABLE 1, were transfected (10 nM final concentration) into HCT116 DICER^ex5, a human colorectal cancer cell line with hypomorphic DICER function (Cummins, J. M., et al., PNAS 103:3687-3692 (2006)). The transfections were carried out using Lipofectamine RNAiMax (Invitrogen) per the manufacturer's instructions. At 10 and 24 hours post-transfection, total RNA was extracted and gene expression profiling was carried out with the Agilent 44K microarray in comparison to RNA isolated from mock-transfected HCT116DICER^ex5 cells. Microarray analysis was carried out as described in Linsley, P. S., et al., Mol Cell Biol 27:2240-2252 (2007). Gene expression data analysis was done either with the Rosetta Resolver gene expression analysis software (Version 7.1 Rosetta Biosoftware).

Substance: miR-192: Synthetic duplex mimetic of miR-192, guide CUGACCUAUGAAUUGACAGCC (SEQ ID NO:1), passenger SEQ ID NO:7 (sense CUGUCAAUUCAUCGGUCUGAU; listed as RNA, chemistry not given here; listed as Homo sapiens)
- BCL2 transcript fold change (10 hr): −1.1 fold change
- BRCA1 transcript fold change (10 hr): −1.02 fold change
- CDC7 transcript fold change (10 hr): −1.63 fold change
- CDC14A transcript fold change (10 hr): −1.02 fold change
- CDC73 transcript fold change (10 hr): −1.2 fold change
- CRK transcript fold change (10 hr): −1.42 fold change
- CTCF transcript fold change (10 hr): −1.59 fold change
- CUL5 transcript fold change (10 hr): −1.16 fold change
- DBF4B transcript fold change (10 hr): −1.12 fold change
- DEK transcript fold change (10 hr): −1.21 fold change
- DLG5 transcript fold change (10 hr): −1.99 fold change
- DTL transcript fold change (10 hr): −1.11 fold change
- EMP1 transcript fold change (10 hr): −1.28 fold change
- ERCC3 transcript fold change (10 hr): −1.3 fold change
- EXTL2 transcript fold change (10 hr): −1.2 fold change
- FGF2 transcript fold change (10 hr): −1.48 fold change
- HOXA10 transcript fold change (10 hr): −1.7 fold change
- HRH1 transcript fold change (10 hr): −1.36 fold change
- KIF14 transcript fold change (10 hr): −1.03 fold change
- KIF23 transcript fold change (10 hr): −1.01 fold change
- LMNB2 transcript fold change (10 hr): −1.38 fold change
- MACF1 transcript fold change (10 hr): −1.3 fold change
- MAD2L transcript fold change (10 hr): −1.18 fold change
- MCM3 transcript fold change (10 hr): −1.51 fold change
- MCM6 transcript fold change (10 hr): −1.01 fold change
- MCM10 transcript fold change (10 hr): −1.77 fold change
- MIS12 transcript fold change (10 hr): −1.25 fold change
- MKI67 transcript fold change (10 hr): −1.08 fold change
- MPHOSPH1 transcript fold change (10 hr): −1.32 fold change
- MTSS1 transcript fold change (10 hr): −1.06 fold change
- NBN transcript fold change (10 hr): −1.49 fold change
- NCAPH transcript fold change (10 hr): 1.01 fold change
- NEK1 transcript fold change (10 hr): −1.12 fold change
- NFIB transcript fold change (10 hr): −1.47 fold change
- NFYA transcript fold change (10 hr): −1.22 fold change
- NIN transcript fold change (10 hr): −1.1 fold change
- PAFAH1B1 transcript fold change (10 hr): −1.83 fold change
- PAPD5 transcript fold change (10 hr): −1.32 fold change
- PFTK1 transcript fold change (10 hr): 1.03 fold change
- PIM1 transcript fold change (10 hr): −1.2 fold change
- PLAU transcript fold change (10 hr): −1.74 fold change
- PLS3 transcript fold change (10 hr): −1.44 fold change
- POLQ transcript fold change (10 hr): −1.03 fold change
- POLS transcript fold change (10 hr): −1.23 fold change
- PPP1CA transcript fold change (10 hr): −1.83 fold change
- PRPF38A transcript fold change (10 hr): −1.11 fold change
- RACGAP1 transcript fold change (10 hr): −1.34 fold change
- RAD1 transcript fold change (10 hr): −1.2 fold change
- RAD51 transcript fold change (10 hr): 1.08 fold change
- RAP1GAP transcript fold change (10 hr): −1.11 fold change
- RB1 transcript fold change (10 hr): −1.21 fold change
- SEPT10 transcript fold change (10 hr): −1.59 fold change
- SERTAD2 transcript fold change (10 hr): −1.12 fold change
- SH3BP4 transcript fold change (10 hr): −1.52 fold change
- SMARCB1 transcript fold change (10 hr): −1.16 fold change
- TDG transcript fold change (10 hr): −1.47 fold change
- TDP1 transcript fold change (10 hr): −1.44 fold change
- TOP1 transcript fold change (10 hr): −1.52 fold change
- TUBGCP3 transcript fold change (10 hr): −1.26 fold change
- USP1 transcript fold change (10 hr): −1.13 fold change
- UVRAG transcript fold change (10 hr): −1.2 fold change
- BCL2 transcript fold change (24 hr): −1.46 fold change
